# Where a SMILES comes first, the peptide text is derived from it.
# System: HCV IRES
# Assay: HCV IRES reporter FACS assay (GFP expression ratio, intein-expressed cyclic peptides)
# Format: cell-based, Hepatitis C virus
# Conditions: ratio at least 1.20 = significant activity
# Excerpt: [The source words this procedure for another variant and says it was used here with some conditions changed.] Cells producing libraries of cyclic 3-mers and 4-mers (i.e., libraries of cyclic peptides that contain 3 or 4 amino acid residues) were constructed using methods identical to those of Kinsella et al (J Biol. Chem. 2002 277:37512-8), except different oligonucleotides were used for library construction. Clones from this library were screened in an assay shown in FIG. 2 to identify IRES-inhibitory compounds.
# In summary, separate cyclic 3-mer and cyclic 4-mer libraries were constructed such that each peptide of the library contained a fixed Ser, Thr or Cys residue (at position 1) and the remaining residues were randomized. For library construction, degenerate oligonucleotides of sequence 5′-[…](AGC/ACC/TGC)(NNK)2 or 3 TGCATCAGCGGCGACAG-3′ were annealed to the primer 5′-[…]-3′ and extended using the Expand PCR kit (Roche Molecular Biochemicals). The double-stranded DNA insert was digested and inserted into the BclI/DrdI sites of DnaBO-e-BFP (ACUC). The plasmid libraries were electroporated into ElectroMAX DH 10B competent E. coli (Invitrogen) for amplification on LB+amp agar medium. […] Expression of the intein is detected by detecting BFP expression. Expression of the intein (and the cyclic peptide produced by the intein) is suppressible by addition of exogenous doxycycline. The amino acid sequence of the junctions of the intein scaffold used in making the 3-mer library is Val-His-Asn-X3 or 4-Cys-Ile-Ser, where X3 or 4 are three or four contiguous amino acids.
# Infectious retroviral particles were produced by transfection of 15 µg of each library (as described in Swift et al, (1999). Current Protocols in Immunology Vol. 10.17C, pp. 1-17, Freeman, N.Y.) into approximately 5×10^6 Phoenix-A packaging cells. Each resulting library of retroviral particles was then used to infect 5×10^6 BJAB-S3A11 reporter cells and a FACS based selection was carried out to isolate cells with reduced HCV-IRES reporter output.
# In detail, referring to FIG. 2, the cells used in the assay contained an IRES-dependent reporter system. […]. Also present in the cells is a control reporter system for assaying the activity of 5′ cap-dependent translation (the mechanism by which most cellular proteins are normally translated). The control reporter system contains a CMV promoter that drives the transcription of an RNA containing 5′ cap-dependent UTR, operably linked to an RNA encoding RFP (red fluorescent protein). Translation of RFP is dependent on the activity of the 5′ cap-dependent UTR.
# Cells containing both the cyclic compound library and the reporter systems described above were first screened for survival upon exposure to diptheria toxin, and then screened by FACS to identify cells that had reduced GFP expression, as compared to RFP expression. Cells were expanded and replica-plated and grown in the presence or absence of dox (100 ng/ml) for four days. Plates were stimulated with IL-4 and GFP expression (relative to RFP) was monitored by flow cytometry. The IRES-inhibitory activity of a peptide is evaluated by calculating the ratio of the geometric mean of GFP expression of peptide positive cells (“peptide pos+” cells i.e., cells not contacted with dox) to the geometric mean of GFP expression of peptide negative cells (“peptide pos−” cells i.e., cells contacted with dox).
# Cyclic peptides assigned higher scores have a greater IRES-inhibitory activity.
# The number shown in parentheses after each of the amino acid sequences is the IRES-inhibitory activity ratio, as discussed above.
# [1] = BJAB-S3A11 reporter cells, +/- dox 100 ng/ml four days, library intein junction Val-His-Asn-X1X2X3-Cys-Ile-Ser
# [2] = 3-mers from mutant intein scaffold, junction Val-His-Asn-X1X2X3-Trp-Ile-Ser
# [3] = 3-mers from mutant intein scaffold, junction Val-His-Tyr-X1X2X3-Cys-Ile-Ser
Structure (SMILES),"IRES-inhibitory activity ratio (geometric mean GFP expression, peptide positive cells / peptide negative cells) [1]","IRES-inhibitory activity ratio (geometric mean GFP expression, peptide positive cells / peptide negative cells) [2]",other results
"C[C@@H]1NC(=O)[C@H](CS)NC(=O)[C@H](Cc2c[nH]c3ccccc23)NC1=O [cyclo-CAW, cyclo[CAW]] (cyclo(Ala-Trp-Cys))",1.37,–,–
"CSCC[C@@H]1NC(=O)[C@H](CS)NC(=O)[C@H](Cc2c[nH]c3ccccc23)NC1=O [cyclo-CMW, cyclo[CMW]] (cyclo(Cys-Met-Trp))",1.29,–,–
"O=C1N[C@@H](Cc2c[nH]c3ccccc23)C(=O)N[C@@H](Cc2c[nH]c3ccccc23)C(=O)N[C@H]1CS [cyclo-CWW, cyclo[CWW]] (cyclo(Cys-Trp-Trp))",1.41,–,–
"O=C1N[C@@H](Cc2ccc(O)cc2)C(=O)N[C@@H](Cc2c[nH]c3ccccc23)C(=O)N[C@H]1CS [cyclo-CYW, cyclo[CYW]] (cyclo(Cys-Tyr-Trp))",1.3,–,–
"C[C@@H]1NC(=O)[C@H](CO)NC(=O)[C@H](Cc2ccccc2)NC1=O [cyclo-SAF, cyclo[SAF]] (cyclo(Ala-Phe-Ser))",–,1.88,–
"CCC(C)[C@@H]1NC(=O)[C@H](C)NC(=O)[C@H](CO)NC1=O (stereo partly shown) [cyclo-SAI, cyclo[SAI]]",–,1.30,–
"C[C@@H]1NC(=O)[C@H](CO)NC(=O)[C@H](CCCCN)NC1=O [cyclo-SAK, cyclo[SAK]] (cyclo(Ala-Lys-Ser))",–,1.3,–
"CSCC[C@@H]1NC(=O)[C@H](C)NC(=O)[C@H](CO)NC1=O [cyclo-SAM, cyclo[SAM]] (cyclo(Ala-Met-Ser))",–,–,"IRES-inhibitory activity ratio (geometric mean GFP expression, peptide positive cells / peptide negative cells) [3]: 1.36"
"C[C@@H]1NC(=O)[C@H](CO)NC(=O)[C@H](CCC(N)=O)NC1=O [cyclo-SAQ, cyclo[SAQ]] (cyclo(Ala-Gln-Ser))",–,1.4,–
"C[C@@H]1NC(=O)[C@H](CO)NC(=O)[C@H]([C@@H](C)O)NC1=O [cyclo-SAT, cyclo[SAT]] (cyclo(Ala-Thr-Ser))",–,–,"IRES-inhibitory activity ratio (geometric mean GFP expression, peptide positive cells / peptide negative cells) [3]: 1.21"
"CC(C)[C@@H]1NC(=O)[C@H](C)NC(=O)[C@H](CO)NC1=O [cyclo-SAV, cyclo[SAV]] (cyclo(Ala-Val-Ser))",–,–,"IRES-inhibitory activity ratio (geometric mean GFP expression, peptide positive cells / peptide negative cells) [3]: 2.65"
"C[C@@H]1NC(=O)[C@H](CO)NC(=O)[C@H](Cc2c[nH]c3ccccc23)NC1=O [cyclo-SAW, cyclo[SAW]] (cyclo(Ala-Trp-Ser))",1.21,–,–
"C[C@@H]1NC(=O)[C@H](CO)NC(=O)[C@H](Cc2ccc(O)cc2)NC1=O [cyclo-SAY, cyclo[SAY]] (cyclo(Ala-Tyr-Ser))",–,–,"IRES-inhibitory activity ratio (geometric mean GFP expression, peptide positive cells / peptide negative cells) [3]: 1.95"
"O=C1N[C@@H](CS)C(=O)N[C@@H](Cc2c[nH]c3ccccc23)C(=O)N[C@H]1CO [cyclo-SCW, cyclo[SCW]] (cyclo(Cys-Trp-Ser))",–,2.01,–
"CC(C)[C@@H]1NC(=O)[C@H](CC(=O)O)NC(=O)[C@H](CO)NC1=O [cyclo-SDV, cyclo[SDV]] (cyclo(Asp-Val-Ser))",–,–,"IRES-inhibitory activity ratio (geometric mean GFP expression, peptide positive cells / peptide negative cells) [3]: 1.23"
"O=C(O)C[C@@H]1NC(=O)[C@H](CO)NC(=O)[C@H](Cc2c[nH]c3ccccc23)NC1=O [cyclo-SDW, cyclo[SDW]] (cyclo(Asp-Trp-Ser))",–,1.85,–

Structure (SMILES),"IRES-inhibitory activity ratio (geometric mean GFP expression, peptide positive cells / peptide negative cells) [1]","IRES-inhibitory activity ratio (geometric mean GFP expression, peptide positive cells / peptide negative cells) [2]",other results
"CC(C)[C@@H]1NC(=O)[C@H](CCC(=O)O)NC(=O)[C@H](CO)NC1=O [cyclo-SEV, cyclo[SEV]] (cyclo(Glu-Val-Ser))",–,–,"IRES-inhibitory activity ratio (geometric mean GFP expression, peptide positive cells / peptide negative cells) [3]: 1.93"
"O=C(O)CC[C@@H]1NC(=O)[C@H](CO)NC(=O)[C@H](Cc2c[nH]c3ccccc23)NC1=O [cyclo-SEW, cyclo[SEW]] (cyclo(Glu-Trp-Ser))",–,2.00,–
"CC(C)[C@@H]1NC(=O)[C@H](Cc2ccccc2)NC(=O)[C@H](CO)NC1=O [cyclo-SFV, cyclo[SFV]]",1.33,–,–
"O=C1N[C@@H](Cc2ccccc2)C(=O)N[C@@H](Cc2c[nH]c3ccccc23)C(=O)N[C@H]1CO [cyclo-SFW, cyclo[SFW]] (cyclo(Phe-Trp-Ser))",1.55,–,–
"N=C(N)NCCC[C@@H]1NC(=O)[C@H](Cc2c[nH]c3ccccc23)NC(=O)[C@H](Cc2ccccc2)NC(=O)[C@H](CO)NC1=O [cyclo-SFWR, cyclo[SFWR]] (cyclo(FWRS))",–,–,"IRES-inhibitory activity ratio (geometric mean GFP expression, peptide positive cells / peptide negative cells) (4-mers from mutant intein scaffold, junction Val-His-Asn-X1X2X3X4-Cys-Ser): 1.49"
"O=C1CNC(=O)[C@H](CO)NC(=O)[C@H](Cc2c[nH]c3ccccc23)N1 [cyclo-SGW, cyclo[SGW]] (cyclo(Gly-Trp-Ser))",–,1.94,–
"CC(C)[C@@H]1NC(=O)[C@H](Cc2cnc[nH]2)NC(=O)[C@H](CO)NC1=O [cyclo-SHV, cyclo[SHV]] (cyclo(His-Val-Ser))",–,–,"IRES-inhibitory activity ratio (geometric mean GFP expression, peptide positive cells / peptide negative cells) [3]: 1.91"
"O=C1N[C@@H](Cc2cnc[nH]2)C(=O)N[C@@H](Cc2c[nH]c3ccccc23)C(=O)N[C@H]1CO [cyclo-SHW, cyclo[SHW]] (cyclo(His-Trp-Ser))",–,2.26,–
"CCC(C)[C@@H]1NC(=O)[C@H](CO)NC(=O)[C@H](C(C)C)NC1=O (stereo partly shown) [cyclo-SIV, cyclo[SIV]]",1.4,–,–
"CCC(C)[C@@H]1NC(=O)[C@H](CO)NC(=O)[C@H](Cc2c[nH]c3ccccc23)NC1=O (stereo partly shown) [cyclo-SIW, cyclo[SIW]]",1.36,–,–
"CC(C)[C@@H]1NC(=O)[C@H](CCCCN)NC(=O)[C@H](CO)NC1=O [cyclo-SKV, cyclo[SKV]] (cyclo(Lys-Val-Ser))",1.38,–,–
"CC(C)C[C@@H]1NC(=O)[C@H](CO)NC(=O)[C@H](Cc2c[nH]c3ccccc23)NC1=O [cyclo-SLW, cyclo[SLW]] (cyclo(Leu-Trp-Ser))",1.27,–,–
"CSCC[C@@H]1NC(=O)[C@H](CO)NC(=O)[C@H](C(C)C)NC1=O [cyclo-SMV, cyclo[SMV]] (cyclo(Met-Val-Ser))",1.36,–,–
"CSCC[C@@H]1NC(=O)[C@H](CO)NC(=O)[C@H](Cc2c[nH]c3ccccc23)NC1=O [cyclo-SMW, cyclo[SMW]] (cyclo(Met-Trp-Ser))",1.28,–,–
"NC(=O)C[C@@H]1NC(=O)[C@H](CO)NC(=O)[C@H](Cc2c[nH]c3ccccc23)NC1=O [cyclo-SNW, cyclo[SNW]] (cyclo(Asn-Trp-Ser))",–,2.10,–

# — patent US20060116316A1, “Heterocyclic inhibitors of IRES-mediated translation and methods of use thereof” (priority 2004, published 2006)
